Measurements as given in patent US5840684A, “Glycopeptide antibiotic derivatives” (Eli Lilly and Company, priority 1995, dated 1998).
In brackets after ≈: the same amount, converted by molar mass.

Columns and labels:
[1] = test system: Staphylococcus aureus S13E; type: cell-based
Protocol: (§1) The MIC's were determined using a standard broth micro-dilution assay.

[2] = test system: Staphylococcus aureus SA1199B; type: cell-based
Protocol: as §1

[3] = test system: Entercoccus faecium 180-1; experiment: broth micro-dilution MIC; type: cell-based
Protocol: as §1

Entercoccus faecium 276 = experiment: broth micro-dilution MIC; type: cell-based
Protocol: as §1

[4] = test system: Staphylococcus aureus 446; experiment: broth micro-dilution MIC; type: cell-based
Protocol: as §1

[5] = test system: Staphylococcus aureus 447; experiment: broth micro-dilution MIC; type: cell-based
Protocol: as §1

[6] = test system: Staphylococcus aureus 489; experiment: broth micro-dilution MIC; type: cell-based
Protocol: as §1

[7] = test system: Staphylococcus aureus 491; experiment: broth micro-dilution MIC; type: cell-based
Protocol: as §1

[8] = test system: Staphylococcus aureus SA1199A; experiment: broth micro-dilution MIC; type: cell-based
Protocol: as §1

[9] = test system: Staphylococcus aureus SA1199; experiment: broth micro-dilution MIC; type: cell-based
Protocol: as §1

[10] = test system: Staphylococcus aureus X400; experiment: broth micro-dilution MIC; type: cell-based
Protocol: as §1

[11] = test system: Staphylococcus aureus X778; experiment: broth micro-dilution MIC; type: cell-based
Protocol: as §1

[12] = test system: Streptococcus pyogenes C203; experiment: broth micro-dilution MIC; type: cell-based
Protocol: as §1

Entercoccus faecium 180 = experiment: broth micro-dilution MIC; type: cell-based; conditions: Entercoccus faecium 180
Protocol: (§2) The formula I compounds have in vitro and in vivo activity against Gram-positive pathogenic bacteria. The MIC's were determined using a standard broth micro-dilution assay.

Entercoccus faecium 2041 = experiment: broth micro-dilution MIC; type: cell-based; conditions: Entercoccus faecium 2041
Protocol: as §2

[13] = test system: Enterococcus gallinarum 245; experiment: broth micro-dilution MIC; type: cell-based; conditions: Enterococcus gallinarum 245
Protocol: as §2

Escherichia coli EC14 = experiment: broth micro-dilution MIC; type: cell-based
Protocol: as §2

[14] = test system: Haemophilus influenzae RD; experiment: broth micro-dilution MIC; type: cell-based; conditions: Haemophilus influenzae RD
Protocol: as §2

[15] = test system: Staphylococcus epidermidis 270; experiment: broth micro-dilution MIC; type: cell-based
Protocol: as §2

[16] = test system: Staphylococcus haemolyticus 105; experiment: broth micro-dilution MIC; type: cell-based
Protocol: as §2

[17] = test system: Staphylococcus haemolyticus 415; experiment: broth micro-dilution MIC; type: cell-based
Protocol: as §2

[18] = test system: Streptococcus pneumoniae P1; experiment: broth micro-dilution MIC; type: cell-based
Protocol: as §2

[19] = test system: vancomycin-resistant enterococci; experiment: broth micro-dilution, mean geometric MIC; type: cell-based, Enterococcus faecium and Enterococcus faecalis; conditions: enterococci, 24-hour incubation
[20] = test system: vancomycin-susceptible enterococci; experiment: broth micro-dilution, mean geometric MIC; type: cell-based, Enterococcus faecium and Enterococcus faecalis; conditions: enterococci, 24-hour incubation

| Structure (SMILES) | MIC [1] [µg/mL] | MIC [2] [µg/mL] | MIC [3] [µg/mL] | MIC (Entercoccus faecium 276) [µg/mL] | MIC [4] [µg/mL] | MIC [5] [µg/mL] | MIC [6] [µg/mL] | MIC [7] [µg/mL] | MIC [8] [µg/mL] | MIC [9] [µg/mL] | MIC [10] [µg/mL] | MIC [11] [µg/mL] | MIC [12] [µg/mL] | MIC (Entercoccus faecium 180) [µg/mL] | MIC (Entercoccus faecium 2041) [µg/mL] | MIC [13] [µg/mL] | MIC (Escherichia coli EC14) [µg/mL] | MIC [14] [µg/mL] | MIC [15] [µg/mL] | MIC [16] [µg/mL] | other results |
| --- | --- | --- | --- | --- | --- | --- | --- | --- | --- | --- | --- | --- | --- | --- | --- | --- | --- | --- | --- | --- | --- |
| CC(C)CC(C(=O)NC1C(=O)NC(CC(N)=O)C(=O)NC2C(=O)NC3C(=O)NC(C(=O)NC(C(=O)O)c4cc(O)cc(O)c4-c4cc3ccc4O)C(OC3CC(C)(N)C(O)C(C)O3)c3ccc(c(Cl)c3)Oc3cc2cc(c3OC2OC(CO)C(O)C(O)C2OC2CC(C)(NCc3c4c(cc5ccccc35)CCCC4)C(O)C(C)O2)Oc2ccc(cc2Cl)C1O)N(C)Cc1c2c(cc3ccccc13)CCCC2 (stereo not drawn) [Compound 262] | 1 (≈ 0.505 µM) | 0.5 (≈ 0.252 µM) | ≤ 0.06 | 2 (≈ 1.01 µM) | 2 (≈ 1.01 µM) | 1 (≈ 0.505 µM) | 1 (≈ 0.505 µM) | 1 (≈ 0.505 µM) | ≤ 0.06 | 0.5 (≈ 0.252 µM) | 2 (≈ 1.01 µM) | 1 (≈ 0.505 µM) | ≤ 0.06 | 1 (≈ 0.505 µM) | 0.5 (≈ 0.252 µM) | 2 (≈ 1.01 µM) | > 64 | > 64 | 1 (≈ 0.505 µM) | 4 (≈ 2.02 µM) | MIC [17]: 2 µg/mL (≈ 1.01 µM); MIC [18]: ≤ 0.06 µg/mL; mean geometric MIC, Vancomycin Resistant Strains [19]: 5.7 µg/mL; mean geometric MIC, Vancomycin Sensitive Strains [20]: 0.17 µg/mL |
| CC(C)CC(C(=O)NC1C(=O)NC(CC(N)=O)C(=O)NC2C(=O)NC3C(=O)NC(C(=O)NC(C(=O)O)c4cc(O)cc(O)c4-c4cc3ccc4O)C(OC3CC(C)(N)C(O)C(C)O3)c3ccc(c(Cl)c3)Oc3cc2cc(c3OC2OC(CO)C(O)C(O)C2OC2CC(C)(N)C(O)C(C)O2)Oc2ccc(cc2Cl)C1O)N(C)Cc1ccc(-c2ccccc2)cc1 (stereo not drawn) [Compound 250] | ≤ 0.06 | ≤ 0.06 | ≤ 0.06 | ≤ 0.06 | 0.25 (≈ 0.142 µM) | 0.125 (≈ 0.0711 µM) | ≤ 0.06 | ≤ 0.06 | ≤ 0.06 | ≤ 0.06 | ≤ 0.06 | ≤ 0.06 | ≤ 0.06 | 2 (≈ 1.14 µM) | ≤ 0.06 | 4 (≈ 2.27 µM) | > 64 | > 64 | 0.25 (≈ 0.142 µM) | 2 (≈ 1.14 µM) | MIC [17]: 4 µg/mL (≈ 2.27 µM); MIC [18]: ≤ 0.06 µg/mL; mean geometric MIC, Vancomycin Resistant Strains [19]: 16 µg/mL; mean geometric MIC, Vancomycin Sensitive Strains [20]: 0.44 µg/mL |
| CC(C)CC(C(=O)NC1C(=O)NC(CC(N)=O)C(=O)NC2C(=O)NC3C(=O)NC(C(=O)NC(C(=O)O)c4cc(O)cc(O)c4-c4cc3ccc4O)C(OC3CC(C)(N)C(O)C(C)O3)c3ccc(c(Cl)c3)Oc3cc2cc(c3OC2OC(CO)C(O)C(O)C2OC2CC(C)(NCc3ccc4ccccc4n3)C(O)C(C)O2)Oc2ccc(cc2Cl)C1O)N(C)Cc1ccc2ccccc2n1 (stereo not drawn) [Compound 285] | 1 (≈ 0.533 µM) | 1 (≈ 0.533 µM) | 0.25 (≈ 0.133 µM) | 0.5 (≈ 0.267 µM) | 4 (≈ 2.13 µM) | 32 (≈ 17.1 µM) | 1 (≈ 0.533 µM) | 4 (≈ 2.13 µM) | 0.25 (≈ 0.133 µM) | 2 (≈ 1.07 µM) | 4 (≈ 2.13 µM) | 1 (≈ 0.533 µM) | ≤ 0.06 | 16 (≈ 8.53 µM) | 0.5 (≈ 0.267 µM) | 16 (≈ 8.53 µM) | > 64 | > 64 | 8 (≈ 4.27 µM) | 16 (≈ 8.53 µM) | MIC [17]: 16 µg/mL (≈ 8.53 µM); MIC [18]: ≤ 0.06 µg/mL; mean geometric MIC, Vancomycin Resistant Strains [19]: 90 µg/mL; mean geometric MIC, Vancomycin Sensitive Strains [20]: 2.4 µg/mL |
| CNC(CC(C)C)C(=O)NC1C(=O)NC(CC(N)=O)C(=O)NC2C(=O)NC3C(=O)NC(C(=O)NC(C(=O)O)c4cc(O)cc(O)c4-c4cc3ccc4O)C(OC3CC(C)(NCc4ccc(-c5ccccc5)cc4)C(O)C(C)O3)c3ccc(c(Cl)c3)Oc3cc2cc(c3OC2OC(CO)C(O)C(O)C2OC2CC(C)(NCc3ccc(-c4ccccc4)cc3)C(O)C(C)O2)Oc2ccc(cc2Cl)C1O (stereo not drawn) [Compound 248] | 0.5 (≈ 0.26 µM) | 8 (≈ 4.16 µM) | ≤ 0.06 | 2 (≈ 1.04 µM) | 2 (≈ 1.04 µM) | 4 (≈ 2.08 µM) | 2 (≈ 1.04 µM) | 1 (≈ 0.52 µM) | 1 (≈ 0.52 µM) | 1 (≈ 0.52 µM) | 4 (≈ 2.08 µM) | 4 (≈ 2.08 µM) | ≤ 0.06 | 0.25 (≈ 0.13 µM) | 1 (≈ 0.52 µM) | 4 (≈ 2.08 µM) | > 64 | > 64 | 0.5 (≈ 0.26 µM) | 2 (≈ 1.04 µM) | MIC [17]: 4 µg/mL (≈ 2.08 µM); MIC [18]: ≤ 0.06 µg/mL; mean geometric MIC, Vancomycin Resistant Strains [19]: 2 µg/mL; mean geometric MIC, Vancomycin Sensitive Strains [20]: 0.66 µg/mL |
| CC(C)CC(C(=O)NC1C(=O)NC(CC(N)=O)C(=O)NC2C(=O)NC3C(=O)NC(C(=O)NC(C(=O)O)c4cc(O)cc(O)c4-c4cc3ccc4O)C(OC3CC(C)(N)C(O)C(C)O3)c3ccc(c(Cl)c3)Oc3cc2cc(c3OC2OC(CO)C(O)C(O)C2OC2CC(C)(NCc3ccc4c(c3)OCO4)C(O)C(C)O2)Oc2ccc(cc2Cl)C1O)N(C)Cc1ccc2c(c1)OCO2 (stereo not drawn) [Compound 265] | 0.5 (≈ 0.269 µM) | 0.5 (≈ 0.269 µM) | ≤ 0.06 | 0.5 (≈ 0.269 µM) | 2 (≈ 1.07 µM) | 2 (≈ 1.07 µM) | 0.5 (≈ 0.269 µM) | 2 (≈ 1.07 µM) | ≤ 0.06 | 2 (≈ 1.07 µM) | 0.5 (≈ 0.269 µM) | 0.5 (≈ 0.269 µM) | ≤ 0.06 | 8 (≈ 4.3 µM) | 0.25 (≈ 0.134 µM) | 1 (≈ 0.537 µM) | > 64 | > 64 | 4 (≈ 2.15 µM) | 8 (≈ 4.3 µM) | MIC [17]: 1 µg/mL (≈ 0.537 µM); MIC [18]: ≤ 0.06 µg/mL; mean geometric MIC, Vancomycin Resistant Strains [19]: 54 µg/mL; mean geometric MIC, Vancomycin Sensitive Strains [20]: 0.87 µg/mL |
| CC(C)CC(C(=O)NC1C(=O)NC(CC(N)=O)C(=O)NC2C(=O)NC3C(=O)NC(C(=O)NC(C(=O)O)c4cc(O)cc(O)c4-c4cc3ccc4O)C(OC3CC(C)(N)C(O)C(C)O3)c3ccc(c(Cl)c3)Oc3cc2cc(c3OC2OC(CO)C(O)C(O)C2OC2CC(C)(N)C(O)C(C)O2)Oc2ccc(cc2Cl)C1O)N(C)Cc1ccc(O)cc1 (stereo not drawn) [Compound 257] | ≤ 0.06 | ≤ 0.06 | ≤ 0.06 | ≤ 0.06 | ≤ 0.06 | 0.25 (≈ 0.147 µM) | ≤ 0.06 | ≤ 0.06 | ≤ 0.06 | ≤ 0.06 | ≤ 0.06 | ≤ 0.06 | ≤ 0.06 | 4 (≈ 2.35 µM) | ≤ 0.06 | ≤ 0.06 | > 64 | > 64 | 0.25 (≈ 0.147 µM) | 2 (≈ 1.18 µM) | MIC [17]: 8 µg/mL (≈ 4.71 µM); MIC [18]: ≤ 0.06 µg/mL; mean geometric MIC, Vancomycin Resistant Strains [19]: 64 µg/mL; mean geometric MIC, Vancomycin Sensitive Strains [20]: 1 µg/mL |
| CC(C)CC(C(=O)NC1C(=O)NC(CC(N)=O)C(=O)NC2C(=O)NC3C(=O)NC(C(=O)NC(C(=O)O)c4cc(O)cc(O)c4-c4cc3ccc4O)C(OC3CC(C)(N)C(O)C(C)O3)c3ccc(c(Cl)c3)Oc3cc2cc(c3OC2OC(CO)C(O)C(O)C2OC2CC(C)(NCc3cccnc3)C(O)C(C)O2)Oc2ccc(cc2Cl)C1O)N(C)Cc1cccnc1 (stereo not drawn) [Compound 280] | 2 (≈ 1.13 µM) | 0.5 (≈ 0.282 µM) | 0.25 (≈ 0.141 µM) | 0.5 (≈ 0.282 µM) | 2 (≈ 1.13 µM) | 8 (≈ 4.51 µM) | 1 (≈ 0.563 µM) | 2 (≈ 1.13 µM) | 0.5 (≈ 0.282 µM) | 2 (≈ 1.13 µM) | 1 (≈ 0.563 µM) | 0.5 (≈ 0.282 µM) | 0.125 (≈ 0.0704 µM) | 32 (≈ 18 µM) | 1 (≈ 0.563 µM) | 32 (≈ 18 µM) | > 64 | > 64 | 8 (≈ 4.51 µM) | > 64 | MIC [17]: 32 µg/mL (≈ 18 µM); MIC [18]: 0.125 µg/mL (≈ 0.0704 µM); mean geometric MIC, Vancomycin Resistant Strains [19]: > 128 µg/mL; mean geometric MIC, Vancomycin Sensitive Strains [20]: 7 µg/mL |
